# Assay results reported in US12590056B2, “IGF2BP2 inhibitors and uses thereof” (CITY OF HOPE, priority 2020, dated 2026).
# “Also recorded” adds a separate entry of the source.
# What was measured:
# [1] = molecular target: T1, IGF2BP2 (Homo sapiens, UniProt Q9Y6M1); test: Biological assays of IGF2BP2 inhibition (purified fractions and synthesized compounds); conditions: for effectiveness, synthesized compound: compounds synthesized based on the predicted structures
# Text: (§1) Virtual screening of library compounds and lead compound identification. NCI DTP library of approximately 260,000 compounds was screened. Screening included docking on the KH3 domain of IGF2BP2. Over 500 compounds were identified for experimental validation. NSC69557, termed CWI1, was identified as a top hit. Mass spectrometry (MS) identified CWI1 as a mixture including three major peaks: CWI1, CWI1-1, and CWI1-2. Their structures were predicted based on nuclear magnetic resonance (NMR) and MS data. The compound peaks for the predicted CWI1-1 and CWI1-2 were purified by HPLC. […] CWI1, CWI1-1, and CWI1-2 were synthesized based on the predicted structures. […] Thus, the structures of CWI1-1 and CWI1-2 were confirmed.
# [2] = molecular target: T1, IGF2BP2; test: Cellular Thermal Shift Assay (CETSA); assay type: binding; conditions: CETSA also run for IGF2BP1 and IGF2BP3; western blot
# Description: FIGS. 2A-2C. […] Cellular Thermal Shift Assay (CETSA) was conducted. The principle of the assay is unbound proteins denature and precipitate at elevated temperatures, while drug-bound proteins tend to remain in solution. Cells are seeded and treated. Cell pellets are washed, harvested, and heated. Cells are lysed and centrifuged. Western blot is performed. FIG. 2A: Results of CETSA for IGF2BP2. FIG. 2B: Results of CETSA for IGF2BP1. FIG. 2C: Results of CETSA for IGF2BP3.
# [3] = molecular target: T1, IGF2BP2; test: Drug Affinity Responsive Target Stability (DARTS) assay; assay type: binding; conditions: protection from degradation by proteases
# Description: FIG. 3. […] Drug Affinity Responsive Target Stability (DARTS) assay was performed. The principle of the assay is binding of compound to proteins protects proteins from degradation by proteases.
# [4] = molecular target: IGF2BP2 binding to m^6A-modified single strand RNA (SS-m^6A) (Homo sapiens, UniProt Q9Y6M1); test: RNA pull-down assay; assay type: biochemical
# IGF2BP2 binding to m^6A-modified single strand RNA (SS-m^6A), sequence (Q9Y6M1 whole entry): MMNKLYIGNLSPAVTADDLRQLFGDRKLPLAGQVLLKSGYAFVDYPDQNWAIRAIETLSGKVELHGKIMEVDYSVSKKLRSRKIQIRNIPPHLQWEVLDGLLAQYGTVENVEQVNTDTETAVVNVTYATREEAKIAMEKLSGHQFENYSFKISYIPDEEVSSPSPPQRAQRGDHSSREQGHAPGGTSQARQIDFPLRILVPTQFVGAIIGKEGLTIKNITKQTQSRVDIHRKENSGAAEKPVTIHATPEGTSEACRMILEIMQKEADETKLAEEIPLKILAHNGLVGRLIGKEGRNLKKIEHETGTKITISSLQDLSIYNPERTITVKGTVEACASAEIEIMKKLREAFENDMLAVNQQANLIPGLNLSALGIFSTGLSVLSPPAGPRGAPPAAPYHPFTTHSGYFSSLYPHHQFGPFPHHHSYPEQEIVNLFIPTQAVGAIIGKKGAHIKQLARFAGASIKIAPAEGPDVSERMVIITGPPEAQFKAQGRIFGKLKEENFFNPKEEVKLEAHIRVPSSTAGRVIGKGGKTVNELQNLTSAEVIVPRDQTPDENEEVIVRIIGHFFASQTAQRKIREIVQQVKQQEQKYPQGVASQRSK
# Text: (§2) FIGS. 4A-4B. CWI1-2 inhibits binding of IGF2BP2 to m^6A-modified RNA and suppresses expression of the oncogenic targets of IGF2BP2.
# [5] = system: IGF2BP2 target genes; test: Expression of IGF2BP2 target genes and of IGF2BP2 after treatment; assay type: cell-based; conditions: after compound treatment
# Text: as §2
# [6] = system: IGF2BP2-high AML cell lines; test: Apoptosis in IGF2BP2-high AML cell lines; assay type: cell-based, human; conditions: 24-hour treatment
# Text: (§3) FIGS. 6A-6B. Effects of CWI1-2 on apoptosis in human acute myeloid leukemia (AML) cells.
# [7] = system: IGF2BP2-low acute leukemia cell lines; test: Apoptosis in IGF2BP2-low acute leukemia cell lines; assay type: cell-based, human; conditions: 24-hour treatment
# Text: as §3
# [8] = system: IGF2BP2-high AML cell lines; test: Cell differentiation in IGF2BP2-high AML cell lines; assay type: cell-based, human; conditions: 24-hour treatment
# Text: (§4) FIGS. 7A-7B. Effects of CWI1-2 on cell differentiation in acute myeloid leukemia (AML).
# [9] = system: IGF2BP2-low acute leukemia cell lines; test: Cell differentiation in IGF2BP2-low acute leukemia cell lines; assay type: cell-based; conditions: 24-hour treatment
# Text: as §4
# [10] = system: primary murine MLL-AF9 AML cells; test: Engraftment of AML cells in bone marrow transplant (BMT) recipient mice; assay type: in vivo; conditions: 5 mg/kg, i.v., daily for 7 days from ten days after BMT; peripheral blood 3 days after last treatment, flow cytometry
# Description: (§5) FIGS. 8A-8B. […] FIG. 8A: Ten days after BMT with primary murine MLL-AF9 AML cells, recipient mice were given vehicle control (CT) or CWI1-2 daily for 7 days (5 mg/kg, i.v.). Peripheral blood was taken 3 days after the last treatment and assessed by flow cytometry.
# [11] = Body weight of BMT recipient mice; assay type: in vivo; conditions: 5 mg/kg, i.v., daily for 7 days
# Description: as §5
# [12] = system: human acute myeloid leukemia (AML) cells; test: Anti-cancer activity in vitro (viability of human AML cells); assay type: cell-based
# Text: FIGS. 5A-5E. IC50 of the lead compound CWI1-2 in human acute myeloid leukemia (AML) cells. FIG. 5A: Relative viability vs. CWI1-2 concentration in healthy bone marrow #1. FIG. 5B: Relative viability vs. CWI1-2 concentration in healthy bone marrow #2. FIG. 5C: Relative viability vs. CWI1-2 concentration in AML blast cells collected from a primary AML patient. FIG. 5D: Relative survival vs. log10 concentration of CWI1-2 in IGF2BP2-high AML cell lines. FIG. 5E: Relative survival vs. log10 concentration of CWI1-2 in IGF2BP2-low AML cell lines.
# [13] = molecular target: T2, KH3 domain of IGF2BP2 (Homo sapiens, UniProt Q9Y6M1); test: Virtual screening of NCI DTP library (docking) followed by experimental validation; conditions: approximately 260,000 compounds screened, over 500 taken to experimental validation
# T2 construct: Screening included docking on the KH3 domain of IGF2BP2
# T2 sequence (Q9Y6M1 427-492 limits assumed): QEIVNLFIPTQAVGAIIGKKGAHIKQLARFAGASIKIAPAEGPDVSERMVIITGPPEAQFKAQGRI
# Text: as §1
# T1 sequence (Q9Y6M1 whole entry, the tested form may be a part): as the sequence (Q9Y6M1 whole entry) above
SMILES,"effectiveness, synthesized compound [1]",binding to IGF2BP2 (CETSA) [2],binding to IGF2BP2 (DARTS) [3],binding of IGF2BP2 to m^6A-modified RNA in the presence of compound [4],IGF2BP2 expression [5],expression of IGF2BP2 target genes [5],apoptosis [6],apoptosis [7],cell differentiation [8],cell differentiation [9],engraftment of AML cells in BMT recipient mice [10],effect on body weight of recipient mice [11],anti-cancer activity in vitro [12],"activity as inhibitor of IGF2BP2, HPLC-purified fraction ([1]; fractions purified by HPLC from the NSC69557 mixture)",hit ranking in library screening [13]
NN/C(=N\N=C\c1cc(Cl)ccc1O)N/N=C\c1cc(Cl)ccc1O [CWI1-1],effective,–,–,–,–,–,–,–,–,–,–,–,–,–,–
Oc1ccc(Cl)cc1/C=N\N/C(=N/N=C/c1cc(Cl)ccc1O)N/N=C/c1cc(Cl)ccc1O [CWI1-2],much more effective,direct and preferential binding; also recorded: specifically binds to IGF2BP2,direct and preferential binding,decreased binding of IGF2BP2 to m^6A-modified single strand RNA (SS-m^6A); also recorded: prevent IGF2BP2 from binding to its mRNA targets; also recorded: specifically inhibits binding of IGF2BP2 to its mRNA targets with m^6A modification,without affecting IGF2BP2 expression,reduces expression of IGF2BP2 target genes; also recorded: suppressing expression of its oncogenic targets such as MYC oncogene,induces remarkable apoptosis; also recorded: significantly promoted,much less likely,induces remarkable cell differentiation; also recorded: significantly promoted,much less likely,inhibits engraftment; also recorded: remarkably inhibit engraftment,little effect on body weight,potent anti-cancer activities in vitro at nanomolar concentrations; also recorded: potent anti-cancer efficacy,most active inhibitor of IGF2BP2,–
N/C(=N\N=C\c1cc(Cl)ccc1O)N/N=C\c1cc(Cl)ccc1O [CWI1],less effective,–,–,–,–,–,–,–,–,–,–,–,–,–,top hit
